This is an account of results in article PMC7927014, “Novel Small Molecule Hsp90/Cdc37 Interface Inhibitors Indirectly Target K-Ras-Signaling” (Cancers, 2021).

In one data set the test system is Hsp90/Cdc37. Put plainly: FIMM screening in split Renilla luciferase assay with hypomorphic NRL-Hsp90 construct, 20 μM. The data set is classed as biochemical. The conditions noted are these: for Average RLU (FIMM Screening-1): DMSO 50019. The protocol:
In the second in silico screening of the FIMM database, we employed the four identified chemical scaffolds (Figure S2B) for the visual inspection of the FIMM compound library. […] All of the purchased compounds were validated in vitro at 20 μM using the split Renilla luciferase assay.
The Hsp90/Cdc37 split Renilla luciferase assay using the full length Hsp90 for the compound screening was described previously. […] After 48 h, the cells were trypsinized and washed with PBS. The harvested cells were lysed in 1 mL of the 1x lysis buffer provided in the Renilla Luciferase Reporter Assay System Kit from Promega (cat. E2820), and were incubated on ice for 10 min. The cell lysates were then cleared by centrifugation at 13,000× g for 1 min. […] After this, the screening/test compounds or DMSO—as indicated—were added to each well. In total, 5 µL NRL-Hsp90- or NRL-N-Hsp90-lysate was added to each well, one row at a time. Subsequently, the plate was incubated for 5 min at room temperature (RT). […] Just before the reading, 20 µL assay buffer containing 2× Renilla luciferase substrate (coelenterazine) was added. For the FIMM screening, sample wells were read on a PHERAstar plate reader (BMG LABTECH) at a gain level of 4000, after 10 s shaking, using a hypomorph of NRL-Hsp90. For the subsequent validations of the compounds, sample wells with the above-described assay constructs were read using a synergy H1 Hybrid Multi-Mode reader (BioTek) in the luminescence detection mode, as described previously in detail.

On the set-up of data set [1]: method as in PMID 24927996. The conditions noted are these: mice, 900 mg/kg; cited from earlier work.
A further data set deals with HCC-44 cells. Put plainly: 2D cell proliferation (alamarBlue). It counts as cell-based. As to conditions: Homo sapiens, HCC44; HCC-44 (lung, G12C), 72 h. The protocol:
(§1) Per well, 500–700 cells were seeded in 96-well flat bottom culture plates in 100 µL. After 24 h, the cells were treated with 0.1% DMSO vehicle control or test compounds diluted in a medium using a 1:2 dilution-series, starting at 100 µM. The plates were further incubated for 72 h. The cell viability was measured after the addition of 10% alamarBlue reagent per well (cat. no. DAL1100, Thermo Fisher Scientific). The fluorescence intensity (excitation 560 nm and emission 590 nm) was measured after 4 h by the use of a H1 Hybrid Multi-Mode reader.
Background: The colour change of resazurin is a common sign of viable cells or microbes.

A further data set has as its system MCF 10A cells. As to the kind of experiment: 2D cell proliferation (alamarBlue). The data set is classed as cell-based. As to conditions: Homo sapiens, 72 h. The protocol: as §1
In a further data set the test system is HEK293 EBNA cells. As to the kind of experiment: 2D cell proliferation (alamarBlue). It counts as cell-based. The conditions noted are these: Homo sapiens, 72 h. The protocol: as §1
The subject of data set [2] is MIA PaCa-2 cells. Put plainly: 2D cell proliferation (alamarBlue). It counts as cell-based. As to conditions: Homo sapiens; MIA PaCa-2 (pancreas), 72 h. How it is done: as §1
Data set [3] deals with SK-BR-3 cells. As to the kind of experiment: 2D cell proliferation (alamarBlue). The conditions noted are these: Homo sapiens; SK-BR-3 (breast, n.a.), 72 h. The data set is classed as cell-based. How it is done:
as §1

Another data set has as its target T1, Hsp90α (N-terminal) (Homo sapiens, UniProt P07900).
T1 construct: purchased BPS Bioscience 50298
As to the kind of experiment: Hsp90 N-terminal ATP-binding site competition assay (FITC-geldanamycin fluorescence polarization). The protocol:
The reaction was initiated by adding 35 ng/μL purified recombinant Hsp90α, and was incubated at RT with slow shaking for 2 h. All of the reactions were performed in a black, low binding NUNC microtiter plate, included in the kit, and the total reaction volume was 50 μL. The enzyme control was measured without the test compound, and the enzyme background control was measured without the test compound or Hsp90α. […] All of the controls and the blank contained 10% DMSO, as did all of the samples of the test compounds. All of the samples were analyzed as duplicates. […] The blank value was subtracted from all of the other values, and the fluorescence polarization was determined as:(1) mP = ((III − I⊥)/(III+ I⊥)) × 1000 where III is the intensity of the parallel, and I┴ the intensity of the perpendicular polarized light.
(In general: In fluorescence polarisation assays a small probe gives low polarisation when free and higher when bound to something large.)

In data set [4] the test system is MIA PaCa-2 cells. Put plainly: Tumorosphere assay (low adhesion, serum-free 3D spheroid culture). The data set is classed as cell-based. As to conditions: Homo sapiens; MIA PaCa-2 (pancreas), low attachment, serum-free, 72 h; read-out: 3D spheroid formation IC50. The protocol:
(§2) Per well, 2000 cells were seeded in flat bottom 96-well suspension culture plates (cat. no. 655185, Cellstar, Greiner Bio-One) in 100 µL DMEM or RPMI media containing 1× B27 (cat. no. 17504044, Gibco, Thermo Fisher Scientific), 25 ng/mL EGF (cat. no. E9644, Sigma-Aldrich), and 25 ng/mL FGF (cat. no. RP-8628, Thermo Fisher Scientific), 20% MethoCult H4100 (cat. no. 04100, […] Technologies). After 2 days, 50 µL media containing 0.3% DMSO or 3× the concentration of the indicated compounds were added to the wells in a 1:2 dilution-series, starting at 100 µM. After 72 h of treatment, 10% (v/v) alamarBlue reagent (cat. no. DAL1100, Thermo Fisher Scientific) was added to each well. Then, the fluorescence intensity (excitation 560 nm and emission 590 nm) was measured after 4 h using a H1 Hybrid Multi-Mode reader (BioTek).

Data set [5] concerns SK-BR-3 cells. The description is as above. It counts as cell-based. The conditions noted are these: Homo sapiens; SK-BR-3 (breast, n.a.), low attachment, serum-free, 72 h; read-out: 3D spheroid formation IC50. How it is done: as §2

Regarding `C/C1=C\[C@H](C)C[C@H](C)[C@H](Cc2cnco2)OC(=O)/C(C)=C/[C@H](C)C[C@H](C)[C@H](Cc2cnco2)OC1=O` [conglobatin A, reference compound], in the data set with Hsp90/Cdc37 (DMSO = 1.00), the “normalized RLU (FIMM Screening-1)” value came out at 0.51 and the “normalized RLU (FIMM Screening-2, scaffold based)” value was determined as 0.49. Moreover, the “Average RLU (FIMM Screening-1)” value with Hsp90/Cdc37 (mean of 3 wells) amounted to 25349 RLU. Moreover, in the data set on Hsp90/Cdc37 (mean of 3 wells, DMSO 51006), the “Average RLU (FIMM Screening-2, scaffold based)” value turned out to be 25048 RLU. Also, the acute toxicity entry in [1] was “well tolerated”.

As a reminder, the IC50 is the concentration needed to halve the response being measured. For the compound `CCOc1ccc(C(=O)c2ccc(O)c(O)c2O)cc1` [×1540, 2,3,4-TRIHYDROXY-4'-ETHOXYBENZOPHENONE], the IC50 came to 49 ± 6 µM in the data set on HCC-44 cells; 172 µM in the data set with MCF 10A cells; 89 µM with HEK293 EBNA cells; 23 ± 2 µM with MIA PaCa-2 cells [2]; 36 ± 3 µM in the data set on SK-BR-3 cells [3]; 53 ± 6 µM with MIA PaCa-2 cells [4]. Moreover, in the data set with SK-BR-3 cells [5], the 50% inhibitory concentration (IC50) worked out at 64 ± 5 µM. Moreover, the “normalized RLU (FIMM Screening-1)” value in the data set with Hsp90/Cdc37 (DMSO = 1.00) worked out at 0.76. Moreover, the “Average RLU (FIMM Screening-1)” value in the data set with Hsp90/Cdc37 (mean of 3 wells) is 37962 RLU. Besides, the “competition with FITC-geldanamycin (ATP-pocket binding, polarization signal)” value on Hsp90α (N-terminal) (20 μM compound) was “None of these four compounds displaced”; on Hsp90α (N-terminal) (up to 50 μM (12.5, 25, 50 μM)) it was “did not do so”.

On to `N=C(CSS(=O)(=O)O)NCC12CC3CC(CC(C3)C1)C2` [×6506, [({N-[(adamantan-1-yl)methyl]carbamimidoyl}methyl)sulfanyl]sulfonic acid], for which the 50% inhibitory concentration (IC50) amounted to 28 ± 4 µM in the data set with HCC-44 cells; 64 µM in the data set with MCF 10A cells; 47 µM in the data set with HEK293 EBNA cells; 25 ± 2 µM with MIA PaCa-2 cells [2]; 36 ± 4 µM in the data set with SK-BR-3 cells [3]; 30 ± 3 µM in the data set on MIA PaCa-2 cells [4]. Besides, in the data set on SK-BR-3 cells [5], the IC50 came out at 36 ± 4 µM. Moreover, the “competition with FITC-geldanamycin (ATP-pocket binding, polarization signal)” value is “None of these four compounds displaced” at Hsp90α (N-terminal) (20 μM compound) and “did not do so” at Hsp90α (N-terminal) (up to 50 μM (12.5, 25, 50 μM)).
